Experimental data: publication PMC12212452, “Studies of All-trans Retinoic Acid Transport in the Eye” (Investigative Ophthalmology & Visual Science, 2025)

Experiments:
Test in all cases: tryptophan fluorescence quenching, quadratic fit
Conditions in all cases: read-out: Association Constant / Quadratic Model Ka (×10^5 M^-1) (converted)
[1] = molecular target: T1, BSA (bovine serum albumin) (Bos taurus, UniProt P02769); assay type: binding
T1 construct: gene ALB; not biotinylated in the Ka titrations
Excerpt: tryptophan fluorescence quenching, quadratic fit on BSA (bovine serum albumin)

[2] = molecular target: T2, CRABP2 (cellular retinoic acid-binding protein 2) (Mus musculus, UniProt P22935)
T2 construct: recombinant in E. coli BL21(DE3), GST tag removed by PreScission Protease
T2 sequence (P22935 1-138): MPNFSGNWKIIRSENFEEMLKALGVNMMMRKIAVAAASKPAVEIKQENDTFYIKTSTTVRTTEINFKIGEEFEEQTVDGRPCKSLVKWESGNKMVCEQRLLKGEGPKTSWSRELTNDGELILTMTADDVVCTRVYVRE
Excerpt: tryptophan fluorescence quenching, quadratic fit on CRABP2 (cellular retinoic acid-binding protein 2)

[3] = molecular target: T3, RBP1 (cellular retinol-binding protein 1) (Mus musculus, UniProt Q00915)
T3 construct: recombinant in E. coli BL21, GST tag cleaved with ProTEV protease
T3 sequence (Q00915 1-135): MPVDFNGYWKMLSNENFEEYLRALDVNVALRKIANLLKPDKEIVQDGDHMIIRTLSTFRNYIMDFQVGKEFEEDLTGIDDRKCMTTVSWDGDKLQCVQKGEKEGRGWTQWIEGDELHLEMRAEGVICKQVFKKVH
Excerpt: tryptophan fluorescence quenching, quadratic fit on RBP1 (cellular retinol-binding protein 1)

T1 sequence (P02769 25-607): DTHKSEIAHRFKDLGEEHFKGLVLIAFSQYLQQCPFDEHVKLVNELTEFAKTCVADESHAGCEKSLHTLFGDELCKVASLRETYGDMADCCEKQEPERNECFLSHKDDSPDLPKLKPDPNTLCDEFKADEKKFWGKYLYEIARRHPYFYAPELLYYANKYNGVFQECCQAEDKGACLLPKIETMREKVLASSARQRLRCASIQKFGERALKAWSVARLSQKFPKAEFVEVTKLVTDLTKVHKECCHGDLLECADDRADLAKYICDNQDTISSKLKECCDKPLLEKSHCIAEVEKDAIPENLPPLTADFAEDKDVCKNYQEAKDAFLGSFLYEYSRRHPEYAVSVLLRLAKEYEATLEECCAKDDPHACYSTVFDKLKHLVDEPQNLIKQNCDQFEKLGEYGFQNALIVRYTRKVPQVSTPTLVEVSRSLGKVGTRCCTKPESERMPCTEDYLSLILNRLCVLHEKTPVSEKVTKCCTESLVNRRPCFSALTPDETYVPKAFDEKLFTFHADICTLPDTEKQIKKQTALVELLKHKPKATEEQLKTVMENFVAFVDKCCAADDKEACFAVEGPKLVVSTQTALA

Kd [1] | Kd [2] | Kd [3] | Compound
4.17 µM | 0.0128 µM |  | CC1=C(/C=C/C(C)=C/C=C/C(C)=C/C(=O)O)C(C)(C)CCC1 [atRA]
4.76 µM | 0.0149 µM | 1.27 µM | CC(C)N1CCC(C)(C)c2cc(C#Cc3ccc(C(=O)O)cc3)ccc21 [floRA]
